Tests used:
Experiment in all cases: MIC of antibiotics alone or mixed with equimolar compound, beta-lactamase-producing germs
Type in all cases: cell-based
[1] = system: Escherichia Coli R9; details: combinations: equimolar quantities
Source text: (§1) The capacity of the products of general formula (I) to compete with the action of the beta-lactamase may be shown by comparing the minimum inhibiting concentrations (MIC) of some penicillins and cephalosporins when mixed with equimolar quantities of the products of general formula I and when not so mixed, in relation to pathogenic germs which produce beta-lactamase.

[2] = system: Protetts Rettgeri R5; details: combinations: equimolar quantities
Source text: as §1

[3] = system: Protetts mirabilis R7; details: combinations: equimolar quantities
Source text: as §1

[4] = system: Pseudomonas Aeruginosa R4; details: combinations: equimolar quantities
Source text: as §1

[5] = system: Escherichia Coli R3; details: combinations: equimolar quantities
Source text: as §1

[6] = system: Protetts mirabilis; details: Protetts mirabilis (strain number not given); combinations: equimolar quantities
Source text: as §1

[7] = system: Escherichia Coli R8; details: combinations: equimolar quantities
Source text: as §1

[8] = system: Protetts mirabilis R2; details: combinations: equimolar quantities
Source text: as §1

[9] = system: Pseudomonas Aeruginosa R1; details: combinations: equimolar quantities
Source text: as §1

MIC [2]	MIC [3]	MIC [5]	MIC [6]	MIC [7]	MIC [8]	MIC [9]	SMILES	MIC [1]	MIC [4]
1000 γ/cc	1000 γ/cc	1000 γ/cc	1000 γ/cc	500 γ/cc	1000 γ/cc		CC1(C)S[C@@H]2[C@H](NC(=O)[C@H](N)c3ccccc3)C(=O)N2[C@H]1C(=O)O [Ampicillin]	500 γ/cc	1000 γ/cc
						1000 γ/cc	O=C(Cc1cccs1)N[C@@H]1C(=O)N2C(C(=O)[O-])=C(C[n+]3ccccc3)CS[C@H]12 [Cephaloridine]		
							CC(=O)OCC1=C(C(=O)O)N2C(=O)[C@@H](NC(=O)Cc3cccs3)[C@H]2SC1 [Cephalothin]	1000 γ/cc	1000 γ/cc

From US4082760A, “Derivatives of 2H,3H-benzimidazo(1,2-b)oxazole” (Italchemi S.p.A. Istituto Chimico Farmaceutico, priority 1975, dated 1978)
